According to patent publication US9655865B2, “Therapeutic treatment for metabolic syndrome, type 2 diabetes, obesity, or prediabetes” (VeroScience, LLC, priority 2002, dated 2017):

How the values were obtained:
Assay type in all cases: in vivo
[1] = test system: obese, diabetic female ob/ob mice; test: Fusaric acid and SKF 38393, alone and combined, 14 days in ob/ob mice (Example 4); conditions: fusaric acid 15 mg/kg, SKF 38393 10 mg/kg; for retroperitoneal fat pad weight / plasma triglyceride level: 14 days; for retroperitoneal fat pad weight: control 727+/−25; for plasma triglyceride level: controls 155+/−15; for blood glucose: once daily 14 days, controls 380+/−30
Method: Fusaric acid is a dopamine beta hydroxylase inhibitor that reduces noradrenaline synthesis in noradrenergic neurons. It is not present in dopaminergic neurons and thus exerts no such effect there. SKF38393 is a post-synaptic dopamine D1 receptor agonist with no marked influence on noradrenergic neurons. A study was conducted to determine the interactive effects of fusaric acid plus SKF 38393 on body fat store levels, and blood glucose and plasma triglyceride levels in ob/ob mice. The ob/ob mouse is hyperphagic, obese, insulin resistant, diabetic and dyslipidemic due to the absence of functional leptin as a result of a mutation in this gene.
Obese, diabetic female ob/ob mice (body weight of approximately 33 g) maintained on 14 hour daily photoperiods, housed one per cage and allowed to feed ad libitum were randomized to once daily treatment with either fusaric acid (15 mg/kg; n=6-8), SKF 38393 (10 mg/kg; n=6-8), both fusaric acid (15 mg/kg) and SKF 38393 (10 mg/kg) (n=6-8), or vehicle (control group; n=6-8) for a 14 day period. On the fifteenth day of the study and approximately 24 hours after the final treatment animals were sacrificed and blood samples were obtained for the analyses of blood glucose, plasma free fatty acid and triglyceride levels. Relative to controls, fusaric acid raised blood glucose from 380+/−30 mg/dl to 430+/−30 mg/dl and SKF 38393 reduced blood glucose to 290+/−55 mg/dl. However, fusaric acid plus SKF 38393 reduced blood glucose to 180+/−20 mg/dl. […] Neither fusaric acid nor SKF 38393 had any effect on retroperitoneal fat pad weight (735+/−43 mg and 735+/−50 mg, respectively versus control value of 727+/−25 mg) however, the combination of fusaric acid plus SKF 38393 reduced retroperitoneal fat pad weight to 680+/−25 mg.

[2] = test system: high fat fed, hypertensive SHR rats; test: Quinelorane and fusaric acid, alone and combined, in high fat fed hypertensive SHR rats (Example 5); conditions: SHR rats on high fat diet; for change from baseline body weight (weight loss): FA 12.5 mg/kg, FIGS. 1 and 2; for blood glucose: FIG. 6
Method: Male SHR rats were maintained on 14 hour daily photoperiods and fed a high fat diet (60% of energy from fat; 5.24 kcal/gram weight) for 3 weeks and then divided into different groups and treated with either quinelorane (Q; a dopamine D2/D3 mixed receptor agonist) (0.075 mg/kg), fusaric acid (FA; a dopamine beta hydroxylase inhibitor) (12.5 mg/kg), quinelorane (0.075 mg/kg) plus FA (Q/FA) (12.5 mg/kg), or vehicle at 13 hours after light onset for 17 days. The doses of Q and FA were set at less than half maximal to effect central dopamine receptor binding functions and dopamine beta hydroxylase activity, respectively. […] Blood pressure measurements were taken at 14 days of treatment and animals were sacrificed at 18 days of treatment for analyses of body fat and humoral factors and metabolites. […] Respecting blood glucose, although both Q and FA reduced glucose level relative to vehicle, only the Q/FA regimen normalized blood glucose in these animals relative to vehicle (FIG. 6).

[3] = test system: obese, diabetic female ob/ob mice; test: Amphetamine with or without bromocriptine, 14 days in ob/ob mice (Example 3); conditions: amphetamine 3 mg/kg
Description: Amphetamine is a selective presynaptic dopamine release enhancer. It also acts as a presynaptic noradrenergic release enhancer but at higher dosages that will counter the effect of the dopamine reuptake inhibition activity to improve metabolism. However, addition of a dopamine D2 receptor agonist will act to reduce any amphetamine-induced increase in synaptic noradrenaline level and therefore should produce a more pronounced desired effect on metabolic disease than amphetamine or the D2 receptor agonist alone. A study was conducted to determine the effects of low dose amphetamine (3 mg/kg) with or without the dopamine D2 receptor agonist bromocriptine (5-<10 mg/kg dose) upon body weight gain, blood glucose, plasma free fatty acid and triglyceride levels in obese, diabetic mice (ob/ob strain). […] The ob/ob mouse is hyperphagic, obese, insulin resistant, diabetic and dyslipidemic due to the absence of functional leptin as a result of a mutation in this gene. Starvation or calorie restriction of these mice leads to increases in plasma free fatty acid levels that can function over the long term to worsen diabetes.
On the fifteenth day of the study and approximately 24 hours after the final treatment animals were sacrificed and blood samples were obtained for the analyses of blood glucose, plasma free fatty acid and triglyceride levels.

[4] = test system: obese, diabetic mice (ob/ob strain); test: GBR 12909 once daily for 14 days in obese, diabetic ob/ob mice (Example 1); conditions: 30 mg/kg once daily 14 days
Method: GBR 12909 (1-(2-[bis(4-Fluorophenyl)methoxy]ethyl)-4-(3-phenylpropyl)piperazine dihydrochloride) is a specific dopamine reuptake inhibitor. Systemic administration of GBR 12909 can increase the dopaminergic to noradrenergic neuronal activity in the central nervous system. A study was conducted to determine the effects of GBR 12909 upon blood glucose and plasma free fatty acid levels in obese, diabetic mice (ob/ob strain). The ob/ob mouse is hyperphagic, obese, insulin resistant, diabetic and dyslipidemic due to the absence of functional leptin as a result of a mutation in this gene. Starvation or calorie restriction of these mice leads to increases in plasma free fatty acid levels that can function over the long term to worsen diabetes.
Different groups of obese, diabetic female (ob/ob) mice (body weight of approximately 33 g) maintained on 12 hour daily photoperiods, housed one per cage and allowed to feed ad libitum were randomized to once daily treatment with either a specific dopamine reuptake inhibitor, GBR 12909 at a dose of 30 mg/kg body weight (n=5-7) or vehicle (control group; n=5-7) for a 14 day period. On the fifteenth day of the study and approximately 24 hours after the final treatment animals were sacrificed and blood samples were obtained for the analyses of blood glucose and plasma free fatty acid and triglyceride levels.

[5] = test system: obese, diabetic female ob/ob mice; test: GBR 12909 and clonidine, alone and combined, 14 days in ob/ob mice with mild diabetes (Example 2); conditions: GBR 12909 about 20 mg/kg, clonidine about 0.1 mg/kg, once daily 14 days, controls 202+/−41
Method: GBR 12909 is a specific dopamine reuptake inhibitor. Its use can increase the dopaminergic to noradrenergic neuronal activity in the central nervous system. However, by combining GBR 12909 with clonidine, a noradrenergic alpha 2 receptor agonist with preferential affinity for presynaptic alpha 2 sites, it is possible to further increase the dopamine to noradrenaline neuronal activity ratio in the central nervous system. A study was conducted to determine the interactive effects of GBR 12909 and clonidine on blood glucose level in ob/ob mice.
Obese, diabetic female ob/ob mice (body weight of approximately 28 g) with mild diabetes were maintained on 14 hour daily photoperiods, housed one per cage and allowed to feed ad libitum. Different groups of these animals were randomized to once daily treatment with either a specific dopamine reuptake inhibitor, GBR 12909 at an approximate dose of 20 mg/kg body weight (n=4), or clonidine at an approximate dose of 0.1 mg/kg (n=5), these same dosages of GBR 12909 plus clonidine (n=3), or vehicle (control group; n=5-7) for a 14 day period. On the fifteenth day of the study and approximately 24 hours after the final treatment animals were sacrificed and blood samples were obtained for the analyses of blood glucose levels.

[6] = test system: Female mice fed a high fat diet for 20 weeks; test: GBR 12909 and FA, alone and combined, 14 days in high fat diet mice (Example 9); conditions: for body weight: 2 weeks treatment, normal weight for age matched controls=28 grams, FIG. 15; for plasma insulin levels: compared to lean controls, FIG. 12
Method: Female mice at 4 weeks of age were fed a high fat diet for 20 weeks to induce diabetes and insulin resistance and continued on such diet while treated for 14 days with either GBR 12909 (10 mg/kg), FA (15 mg/kg), GBR 12909 (10 mg/kg) plus FA (15 mg/kg), or vehicle and sacrificed after 14 days of treatment for the analyses of body fat, blood glucose, plasma insulin, and plasma nitric oxide levels. The composite of body fat store level, blood glucose and plasma insulin was reduced the greatest in the GBR/FA group and by a magnitude more than additive of the individual GBR and FA groups combined. Only the GBR/FA group normalized plasma insulin levels. […] This effect was not observed with either GBR or FA treatments alone.

[7] = test system: male mice fed a high fat diet; test: GBR versus bupropion in high fat diet mice (Example 11)
Method: The effect of increasing central dopamine neuronal activity versus increasing central dopamine plus norepinephrine neuronal activity on body fat, blood glucose, plasma insulin, and insulin sensitivity was studied in male mice fed a high fat diet from 4 weeks of age until 24 weeks of age. These mice were maintained on this high fat diet while treated with either GBR (20 mg/kg) (a selective dopamine reuptake inhibitor) or bupropion (20 mg/kg) (a dopamine and norepinpehrine reuptake inhibitor) at doses that approximate their 50% maximal effective dose for these functions in vivo in rodents.

[8] = test system: Female C57 Black mice fed a high simple sugar/moderate fat diet (western diet); test: GBR 12909, FA, clonidine and combinations in C57 Black mice on western diet, body fat (Example 6); conditions: GBR 25 mg/kg, FA 10 mg/kg, clonidine 0.075 mg/kg, 14 days, FIG. 7
[9] = test system: Female obese diabetic mice (ob/ob strain); test: Bupropion and FA, alone and combined, 14 days in ob/ob mice (Example 7); conditions: bupropion 40 mg/kg, FA 10 mg/kg, FIG. 9
Method: Female obese diabetic mice (ob/ob strain) at 6 weeks of age were fed standard rodent chow and different groups of animals (n=5-7/group) were treated with bupropion (40 mg/kg), FA (10 mg/kg), bupropion (40 mg/kg) plus FA (10 mg/kg), or vehicle for 14 days and then sacrificed for the analyses of blood glucose and body fat store level. […] Moreover, these reductions were more than additive in magnitude relative to the effects of the individual compounds combined.

[10] = relative to vehicle, sacrifice at 18 days
[11] = GBR 12909 10 mg/kg, FA 15 mg/kg, 14 days

With Cl.Oc1cc2c(cc1O)C(c1ccccc1)CNCC2 (centres unmarked) [SKF 38393, 1-phenyl-7,8-dihydroxy-2,3,4,5-tetrahydro-1H-3-benzazepine hydrochloride] the “retroperitoneal fat pad weight” value [1] was 735 ± 50 mg, the plasma triglyceride level [1] was 130 ± 7 mg/dL and the blood glucose [1] was 290 ± 55 mg/dL.

For CCCN1CCC[C@@H]2Cc3nc(N)ncc3C[C@H]21 [Q], the “desensitization to the effects on weight loss” value ([2]; Q 0.075 mg/kg, 17 days) was “exhibited desensitization”, the “change from baseline body weight (weight loss)” value ([2]; Q 0.075 mg/kg, 17 days) was “modest if any effects” and the blood glucose ([2]; relative to vehicle) was “reduced”. The “plasma endothelin-1 (endothelin 1-21 fragment)” value [2, 10] was “no significant effect” and the plasma nitric oxide [2, 10] was “no significant effect”.

With CC(N)Cc1ccccc1 (centres unmarked) [amphetamine] the “plasma free fatty acid levels” value ([3]; 14 days, controls 900+/−100) was 510 ± 30 µM, the final body weight ([3]; bromocriptine 5-<10 mg/kg, 14 days, controls 44+/−1) was “no effect” and the plasma triglyceride levels ([3]; bromocriptine 5-<10 mg/kg, 14 days, controls 175+/−21) was 70 ± 7 mg/dL. For the same compound, the blood glucose ([3]; bromocriptine 5-<10 mg/kg, once daily 14 days, controls 422+/−46) was 348 ± 22 mg/dL.

Cl.Cl.Fc1ccc(C(OCCN2CCN(CCCc3ccccc3)CC2)c2ccc(F)cc2)cc1 [GBR 12909, 1-(2-[bis(4-Fluorophenyl)methoxy]ethyl)-4-(3-phenylpropyl)piperazine dihydrochloride] was tested, and the “reduction of plasma triglyceride level relative to controls” value [4] was “approximately 32%”, the blood glucose ([4]; about 24 h after final treatment, controls 455+/−50) was 145 ± 25 mg/dL and the final body weight ([4]; controls 42+/−2) was 28 ± 0.5 g. The “plasma free fatty acid levels” value ([4]; controls 780+/−40) was 450 ± 20 µM, the blood glucose [5] was 221 ± 31 mg/dL and the body weight [6] was “not observed”. For the same compound, the blood glucose ([6]; GBR 12909 10 mg/kg, FA 15 mg/kg, 14 days, FIG. 11) was “no significant effect”, the plasma insulin levels [6, 11] was “significantly higher” and the “body fat (intraabdominal fat pad)” value ([7]; 20 mg/kg, compared to vehicle and Bupropion, FIG. 17) was “significantly reduced”. The HOMA-IR values ([7]; 20 mg/kg, compared to vehicle and Bupropion, FIG. 19) was “significantly reduced”, the blood glucose ([7]; 20 mg/kg, relative to vehicle and Bupropion, FIG. 18) was “significantly reduced” and the “reduction of plasma insulin compared with bupropion” value ([7]; equal dose 20 mg/kg) was “much more effective”.

For Clc1cccc(Cl)c1NC1=NCCN1 [clonidine, 2-(2,6-dichloroanilino)-2-imidazoline], the blood glucose [5] was 250 ± 35 mg/dL and the “body fat store level (intraabdominal fat pad)” value [8] was “no effect”.

For CCCCc1ccc(C(=O)O)nc1 [fusaric acid, 5-butyl-2-pyridinecarboxylic acid], the “retroperitoneal fat pad weight” value [1] was 735 ± 43 mg, the plasma triglyceride level [1] was 170 ± 27 mg/dL and the blood glucose [1] was 430 ± 30 mg/dL. The “change from baseline body weight (weight loss)” value ([2]; Q 0.075 mg/kg, 17 days) was “modest if any effects”, the blood glucose ([2]; relative to vehicle) was “reduced” and the “plasma C-reactive protein (CRP) levels” value [2, 10] was “no significant effect”. The blood glucose [9] was “no significant effect”, the body weight [6] was “not observed” and the plasma insulin levels [6, 11] was “significantly higher”.
